# Reference: ChEMBL document CHEMBL2396630, “Backbone cyclic helix mimetic of chemokine (C-C motif) receptor 2: a rational approach for inhibiting dimerization of G protein-coupled receptors” (Bioorg Med Chem, 2013)
# Active and inactive are the calls of the source. No cut-off for these calls is given here. Numbered stars: 1 amine (or outer) side, 2 acyl side, 3 side chain; on linkers, the order of the positions; unused ones are H or OH. Bridge positions count the residues as written; N and C are the ends. Square brackets hold non-standard residues; d marks the D form. Peptide text beside a SMILES is read from it. N(2-Aminoethyl)Gly = O=C(CN(CCN[*:3])[*:1])[*:2]; CO = O=C([*:1])[*:2]; Nlys = NCCCCNCC(=O)O
# Experiments:
# Assay type in all cases: cell-based
# [1] = target: C-C chemokine receptor type 2 (Homo sapiens) (UniProt P41597); experiment: Binding affinity to CCR2 in human THP1 cells assessed as inhibition of MCP1-mediated monocyte migration after 30 mins by Transwell assay relative to untreated control; details: THP-1
# [2] = target: C-C chemokine receptor type 2 (Homo sapiens) (UniProt P41597); experiment: Binding affinity to CCR2 in human THP1 cells assessed as inhibition of monocyte migration after 30 mins by Transwell assay; details: THP-1
# [3] = target: C-C chemokine receptor type 2 (Homo sapiens) (UniProt P41597); experiment: Binding affinity to CCR2 in human THP1 cells assessed as inhibition of SDF1-mediated monocyte migration after 30 mins by Transwell assay; details: THP-1
# THP-1 = experiment: Cytotoxicity against human THP1 cells assessed as cell death
# [4] = target: C-C chemokine receptor type 2 (Homo sapiens) (UniProt P41597); experiment: Binding affinity to CCR2 in human THP1 cells assessed as inhibition of MCP1-mediated monocyte migration at 10 uM after 30 mins by Transwell assay relative to untreated control; details: THP-1
# Chain of C-C chemokine receptor type 2 (Homo sapiens) (P41597 whole entry, looked up): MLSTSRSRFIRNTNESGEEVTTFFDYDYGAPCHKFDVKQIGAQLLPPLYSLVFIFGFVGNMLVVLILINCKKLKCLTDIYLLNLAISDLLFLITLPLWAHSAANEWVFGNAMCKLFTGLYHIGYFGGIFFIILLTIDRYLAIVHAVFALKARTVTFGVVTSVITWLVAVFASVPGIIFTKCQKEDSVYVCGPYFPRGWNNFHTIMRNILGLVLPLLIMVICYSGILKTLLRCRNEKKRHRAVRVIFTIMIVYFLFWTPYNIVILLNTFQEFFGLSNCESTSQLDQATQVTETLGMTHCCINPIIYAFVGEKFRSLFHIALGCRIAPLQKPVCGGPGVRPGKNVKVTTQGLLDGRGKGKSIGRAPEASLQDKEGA
Compound,inhibition [1],inhibition [4],further results
CC[C@H](C)[C@@H]1NC(=O)[C@H](CC(C)C)NC(=O)CN(C(=O)[C@@H](NC(=O)[C@H](CC(C)C)NC(=O)[C@@H](N)CCSC)C(C)C)CCNC(=O)NCCCCN(CC(N)=O)C1=O (H-MLV[N(2-Aminoethyl)Gly]LI[Nlys]-NH2; linker 4-7 via CO),Active,–,inhibition [2]: inactive; inhibition [3]: inactive; Activity (THP-1): Non-toxic
CC[C@H](C)[C@H](NC(=O)CN1CCCCNC(=O)NCCN(C(=O)[C@@H](N)CCSC)CC(=O)N[C@@H](C(C)C)C(=O)N[C@@H](C(C)C)C1=O)C(=O)N[C@@H](CC(C)C)C(N)=O (H-M[N(2-Aminoethyl)Gly]VV[Nlys]IL-NH2; linker 2-5 via CO),inactive,–,–
H-MLVVLIL-OH,–,Active,–
H-LVVLIL-OH,–,inactive,–
H-VVLIL-OH,–,inactive,–
CC[C@H](C)[C@H](NC(=O)[C@H](CC(C)C)NC(=O)CN1CCCCNC(=O)NCCNCC(=O)N[C@@H](CC(C)C)C(=O)N[C@@H](C(C)C)C1=O)C(=O)N[C@@H](CC(C)C)C(N)=O (H-[N(2-Aminoethyl)Gly]LV[Nlys]LIL-NH2; linker 1-4 via CO),inactive,–,–
CC[C@H](C)[C@H](NC(=O)[C@H](CC(C)C)NC(=O)[C@@H](NC(=O)CN1CCCCNC(=O)NCCNCC(=O)N[C@@H](CCSC)C(=O)N[C@@H](CC(C)C)C1=O)C(C)C)C(=O)N[C@@H](CC(C)C)C(N)=O (H-[N(2-Aminoethyl)Gly]ML[Nlys]VLIL-NH2; linker 1-4 via CO),inactive,–,–
CC[C@H](C)[C@H](NC(=O)[C@H](CC(C)C)NC(=O)[C@@H](N)C(C)C)C(=O)N[C@@H](CC(C)C)C(=O)O (H-VLIL-OH),–,inactive,–
